Results taken from ChEMBL document CHEMBL4028852, “Design of a Chemical Probe for the Bromodomain and Plant Homeodomain Finger-Containing (BRPF) Family of Proteins” (J Med Chem, 2017).

Legend:
Peregrin (Homo sapiens) = target: T1, Peregrin (Homo sapiens) (UniProt P55201)
T1 sequence (whole entry): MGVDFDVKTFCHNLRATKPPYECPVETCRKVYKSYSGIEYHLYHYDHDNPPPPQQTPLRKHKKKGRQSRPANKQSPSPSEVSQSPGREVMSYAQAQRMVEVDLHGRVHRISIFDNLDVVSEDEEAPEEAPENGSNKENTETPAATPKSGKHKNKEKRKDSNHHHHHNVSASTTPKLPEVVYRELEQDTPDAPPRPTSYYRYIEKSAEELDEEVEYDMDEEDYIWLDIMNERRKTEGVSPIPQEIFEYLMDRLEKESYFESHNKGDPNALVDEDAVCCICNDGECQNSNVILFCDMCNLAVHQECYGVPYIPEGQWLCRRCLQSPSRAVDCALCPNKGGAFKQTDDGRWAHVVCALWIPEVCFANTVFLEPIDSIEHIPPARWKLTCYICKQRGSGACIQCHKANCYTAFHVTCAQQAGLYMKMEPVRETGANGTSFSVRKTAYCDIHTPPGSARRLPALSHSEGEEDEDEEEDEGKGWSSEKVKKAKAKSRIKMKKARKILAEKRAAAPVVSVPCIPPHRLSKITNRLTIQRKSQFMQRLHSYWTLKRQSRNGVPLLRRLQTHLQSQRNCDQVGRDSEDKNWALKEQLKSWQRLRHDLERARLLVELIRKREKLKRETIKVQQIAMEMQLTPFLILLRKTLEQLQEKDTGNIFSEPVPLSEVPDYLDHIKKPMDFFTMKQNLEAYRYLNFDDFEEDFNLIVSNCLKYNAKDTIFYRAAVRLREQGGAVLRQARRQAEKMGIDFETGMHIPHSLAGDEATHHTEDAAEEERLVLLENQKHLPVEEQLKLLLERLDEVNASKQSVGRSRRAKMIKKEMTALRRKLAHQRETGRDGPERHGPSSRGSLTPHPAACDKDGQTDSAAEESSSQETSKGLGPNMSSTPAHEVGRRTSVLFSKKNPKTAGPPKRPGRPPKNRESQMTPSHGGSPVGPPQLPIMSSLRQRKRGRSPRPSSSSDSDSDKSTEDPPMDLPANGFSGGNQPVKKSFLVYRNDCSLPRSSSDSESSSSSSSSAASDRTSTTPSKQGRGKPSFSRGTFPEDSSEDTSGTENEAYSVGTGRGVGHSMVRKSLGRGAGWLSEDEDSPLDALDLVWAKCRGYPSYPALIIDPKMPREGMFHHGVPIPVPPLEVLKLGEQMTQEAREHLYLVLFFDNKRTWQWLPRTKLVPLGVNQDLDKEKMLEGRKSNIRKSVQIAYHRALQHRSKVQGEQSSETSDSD
Description: Binding affinity to BRPF1 (unknown origin) assessed as change in melting temperature at 10 uM by differential scanning fluorimetry based thermal shift assay

Peregrin = target: T2, Peregrin (Homo sapiens, UniProt P55201); test: Inhibition of human BRPF1 (627 to 740 residues) expressed in Escherichia coli BL21 after 1 hr by BROMOscan assay
T2 sequence (P55201 whole entry): T1 sequence (whole entry)

[1] = Inhibition of cell proliferation of human HRA19 cells after 72 hrs by MTS assay; type: functional; conditions: HRA19, 72 h
DMS-114 = test: Inhibition of cell proliferation of human DMS114 cells after 72 hrs by MTS assay; type: functional; conditions: DMS-114, 72 h
NCI-H1703 = test: Inhibition of cell proliferation of human NCI-H1703 cells after 72 hrs by MTS assay; type: functional; conditions: NCI-H1703, 72 h
[2] = Inhibition of cell proliferation of human RERF-LC-Sq1 cells after 72 hrs by MTS assay; type: functional; conditions: RERF-LC-Sq1, 72 h
[3] = target: T3, Bromodomain-containing protein 1 (Homo sapiens, UniProt O95696); test: Inhibition of human BRPF2 (556 to 688 residues) expressed in Escherichia coli BL21 after 1 hr by BROMOscan assay
T3 sequence (O95696 whole entry): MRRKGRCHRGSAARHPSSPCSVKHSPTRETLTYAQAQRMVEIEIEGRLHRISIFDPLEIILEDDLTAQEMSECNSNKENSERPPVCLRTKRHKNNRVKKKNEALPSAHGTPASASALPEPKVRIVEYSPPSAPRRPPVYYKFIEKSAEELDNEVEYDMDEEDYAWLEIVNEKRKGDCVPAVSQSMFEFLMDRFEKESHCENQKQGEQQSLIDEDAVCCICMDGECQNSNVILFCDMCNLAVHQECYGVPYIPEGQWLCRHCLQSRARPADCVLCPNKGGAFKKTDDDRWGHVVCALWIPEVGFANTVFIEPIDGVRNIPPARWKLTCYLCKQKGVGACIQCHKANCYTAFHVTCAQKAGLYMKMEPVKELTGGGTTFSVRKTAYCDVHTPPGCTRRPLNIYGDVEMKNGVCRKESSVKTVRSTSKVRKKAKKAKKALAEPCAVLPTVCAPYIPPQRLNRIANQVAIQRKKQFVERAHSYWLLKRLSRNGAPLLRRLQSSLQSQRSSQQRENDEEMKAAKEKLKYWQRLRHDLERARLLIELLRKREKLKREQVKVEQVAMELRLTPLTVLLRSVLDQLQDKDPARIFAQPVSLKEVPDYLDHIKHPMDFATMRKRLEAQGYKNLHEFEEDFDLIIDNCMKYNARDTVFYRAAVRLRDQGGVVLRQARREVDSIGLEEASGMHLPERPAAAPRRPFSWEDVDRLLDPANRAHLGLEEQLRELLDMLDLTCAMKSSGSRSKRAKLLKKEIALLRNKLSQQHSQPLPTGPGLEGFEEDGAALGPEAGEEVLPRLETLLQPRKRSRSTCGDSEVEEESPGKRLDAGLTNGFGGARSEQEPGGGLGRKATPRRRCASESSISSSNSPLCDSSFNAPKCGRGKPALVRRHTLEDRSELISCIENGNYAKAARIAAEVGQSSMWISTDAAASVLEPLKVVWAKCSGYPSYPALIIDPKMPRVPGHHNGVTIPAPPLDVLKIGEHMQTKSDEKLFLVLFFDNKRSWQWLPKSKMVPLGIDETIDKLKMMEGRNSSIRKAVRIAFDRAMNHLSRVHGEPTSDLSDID

[4] = target: T4, Bromodomain and PHD finger-containing protein 3 (Homo sapiens, UniProt Q9ULD4); test: Inhibition of human BRPF3 (588 to 701 residues) expressed in Escherichia coli BL21 after 1 hr by BROMOscan assay
T4 sequence (Q9ULD4 whole entry): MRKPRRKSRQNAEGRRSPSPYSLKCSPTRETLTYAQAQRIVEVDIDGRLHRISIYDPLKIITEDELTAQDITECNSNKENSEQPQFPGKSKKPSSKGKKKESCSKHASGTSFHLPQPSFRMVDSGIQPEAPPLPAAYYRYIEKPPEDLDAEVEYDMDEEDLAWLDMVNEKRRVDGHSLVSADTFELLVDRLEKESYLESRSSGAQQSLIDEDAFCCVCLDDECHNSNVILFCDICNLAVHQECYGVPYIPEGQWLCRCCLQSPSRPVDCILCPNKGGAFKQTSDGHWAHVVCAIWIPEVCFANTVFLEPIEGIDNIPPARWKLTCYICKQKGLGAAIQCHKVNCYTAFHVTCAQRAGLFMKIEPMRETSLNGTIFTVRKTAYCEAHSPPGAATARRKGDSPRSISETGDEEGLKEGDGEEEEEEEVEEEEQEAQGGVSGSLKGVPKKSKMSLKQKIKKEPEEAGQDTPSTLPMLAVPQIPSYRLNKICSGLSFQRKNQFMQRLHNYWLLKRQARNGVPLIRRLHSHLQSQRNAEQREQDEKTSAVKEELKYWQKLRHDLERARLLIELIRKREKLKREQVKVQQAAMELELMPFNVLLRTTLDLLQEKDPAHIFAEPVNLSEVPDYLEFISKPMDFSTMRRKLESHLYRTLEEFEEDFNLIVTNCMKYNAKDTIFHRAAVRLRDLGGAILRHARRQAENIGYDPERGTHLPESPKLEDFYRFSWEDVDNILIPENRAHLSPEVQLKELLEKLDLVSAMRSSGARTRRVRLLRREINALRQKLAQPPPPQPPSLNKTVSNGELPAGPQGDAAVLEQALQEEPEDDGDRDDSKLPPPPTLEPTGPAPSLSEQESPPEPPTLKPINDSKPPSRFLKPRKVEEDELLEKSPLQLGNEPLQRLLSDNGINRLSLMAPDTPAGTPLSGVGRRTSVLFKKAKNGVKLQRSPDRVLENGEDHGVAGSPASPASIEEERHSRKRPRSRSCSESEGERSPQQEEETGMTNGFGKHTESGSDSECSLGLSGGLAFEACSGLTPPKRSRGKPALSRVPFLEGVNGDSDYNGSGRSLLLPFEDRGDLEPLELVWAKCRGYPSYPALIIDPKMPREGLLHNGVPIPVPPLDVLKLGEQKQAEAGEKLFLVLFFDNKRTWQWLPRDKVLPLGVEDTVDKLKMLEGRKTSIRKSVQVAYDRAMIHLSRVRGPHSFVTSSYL

[5] = target: Bromodomain-containing protein 4 (Homo sapiens, UniProt O60885); test: Inhibition of human BRD4 isoform long bromodomain 1 (44 to 168 residues) expressed in Escherichia coli BL21 after 1 hr by BROMOscan assay
[6] = target: T5, Bromodomain-containing protein 9 (Homo sapiens, UniProt Q9H8M2)
T5 sequence (Q9H8M2 whole entry): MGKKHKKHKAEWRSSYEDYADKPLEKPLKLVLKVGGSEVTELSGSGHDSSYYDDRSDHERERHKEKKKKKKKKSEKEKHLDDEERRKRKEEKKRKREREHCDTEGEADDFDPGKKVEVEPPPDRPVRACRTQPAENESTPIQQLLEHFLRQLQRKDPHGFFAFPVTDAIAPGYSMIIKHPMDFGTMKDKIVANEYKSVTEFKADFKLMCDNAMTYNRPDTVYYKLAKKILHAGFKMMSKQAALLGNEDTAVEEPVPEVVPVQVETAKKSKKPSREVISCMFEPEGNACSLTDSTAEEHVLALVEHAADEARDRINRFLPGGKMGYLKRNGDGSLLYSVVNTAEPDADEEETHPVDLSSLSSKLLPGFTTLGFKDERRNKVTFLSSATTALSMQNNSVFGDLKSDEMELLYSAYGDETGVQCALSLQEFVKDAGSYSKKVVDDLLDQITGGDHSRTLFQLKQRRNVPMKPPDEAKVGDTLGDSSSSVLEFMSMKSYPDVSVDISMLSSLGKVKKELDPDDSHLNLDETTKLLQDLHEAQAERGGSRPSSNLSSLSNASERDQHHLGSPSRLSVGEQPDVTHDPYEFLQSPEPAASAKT
Description: Inhibition of human BRD9 (130 to 259 residues) expressed in Escherichia coli BL21 after 1 hr by BROMOscan assay

Row | Structure (SMILES) | ΔTm (Peregrin (Homo sapiens)) [°C] | also measured
1 | COc1cc2c(cc1NS(=O)(=O)c1ccc(C#N)cc1)cc(C)c(=O)n2C | 8.8 | –
2 | COc1ccccc1S(=O)(=O)Nc1ccc2c(c1)cc(C)c(=O)n2C | 10.2 | –
3 | COc1cc2c(ccc(=O)n2C)cc1N(C)S(=O)(=O)c1ccc(C#N)cc1 | – | IC50 (Peregrin): 1 µM
4 | Cn1c(=O)ccc2cc(NS(C)(=O)=O)ccc21 | 1.4 | –
5 | CCS(=O)(=O)Nc1ccc2c(ccc(=O)n2C)c1 | 1.8 | –
6 | Cc1cc2cc(NS(=O)(=O)c3ccc(C#N)cc3)ccc2n(C)c1=O | 9.7 | GI50 [1]: 15.6 µM; GI50 (DMS-114): 16.6 µM; GI50 (NCI-H1703): > 30 µM; GI50 [2]: 17.1 µM
7 | CCc1cc2cc(NS(=O)(=O)c3ccc(C#N)cc3OC)ccc2n(C)c1=O | 8 | IC50 (Peregrin): 0.093 µM
8 | Cn1c(=O)ccc2cc(NS(=O)(=O)C3CCCCC3)ccc21 | 3.9 | –
9 | COc1cc(C#N)ccc1S(=O)(=O)Nc1cc(F)c2c(c1)cc(C)c(=O)n2C | 6.8 | IC50 [3]: 0.51 µM; IC50 [4]: 10 µM; IC50 (Peregrin): 0.012 µM
10 | COc1cc2c(cc1NS(=O)(=O)c1ccc(C#N)cc1OC)cc(C)c(=O)n2C | 12.7 | IC50 [5]: 1.7 µM
11 | CCN(c1ccc2c(c1)cc(C)c(=O)n2C)S(=O)(=O)c1ccc(C#N)cc1OC | – | IC50 (Peregrin): 0.11 µM
12 | CC(C)c1cc2cc(NS(=O)(=O)c3ccc(C#N)cc3)ccc2n(C)c1=O | – | IC50 [3]: 14 µM; IC50 [4]: 16 µM; IC50 (Peregrin): 0.87 µM
13 | Cn1c(=O)ccc2cc(NS(=O)(=O)c3ccccc3C#N)ccc21 | 2.4 | –
14 | COc1cc(C#N)ccc1S(=O)(=O)N(C)c1ccc2c(c1)cc(C)c(=O)n2C | 7.1 | –
15 | Cn1c(=O)ccc2cc(S(=O)(=O)Nc3ccc(C#N)cc3)ccc21 | 3.1 | IC50 [4]: 2.2 µM
16 | Cn1c(=O)ccc2cc(NS(=O)(=O)c3cccc(C#N)c3)ccc21 | 4.4 | –
17 | CCc1cc2cc(NS(=O)(=O)c3ccc(C#N)cc3)ccc2n(C)c1=O | 5.6 | –
18 | Cn1c(=O)ccc2cc(NS(=O)(=O)c3ccc(C#N)cc3)ccc21 | 5.2 | –
19 | CC(C)S(=O)(=O)Nc1ccc2c(ccc(=O)n2C)c1 | 2.2 | –
20 | Cc1cc(=O)n(C)c2ccc(NS(=O)(=O)c3ccc(C#N)cc3)cc12 | 4.3 | –
21 | COc1cc(C#N)ccc1S(=O)(=O)N(c1ccc2c(c1)cc(C)c(=O)n2C)C(C)C | – | IC50 (Peregrin): 0.16 µM
22 | Cn1c(=O)ccc2cc(NS(=O)(=O)c3ccccc3)ccc21 | 5.3 | IC50 [6]: 2.2 µM
23 | CCc1cc2cc(NS(=O)(=O)c3ccc(C#N)cc3OC)ccc2n(CC)c1=O | – | IC50 [3]: 4.4 µM; IC50 [4]: 4.6 µM; IC50 (Peregrin): 0.25 µM
24 | CCc1cc2cc(NS(=O)(=O)c3ccc(C#N)cc3)ccc2n(CC)c1=O | – | IC50 [5]: > 100 µM
25 | COc1cc2c(cc1NS(=O)(=O)c1ccccc1)cc(C)c(=O)n2C | 9.4 | –
26 | COc1cc2c(ccc(=O)n2C)cc1NS(=O)(=O)c1ccccc1 | 6.3 | –
27 | CN(c1ccc2c(ccc(=O)n2C)c1)S(=O)(=O)c1ccc(C#N)cc1 | 1.8 | –
28 | Cn1c(=O)ccc2cc(NS(=O)(=O)C3CC3)ccc21 | 1.9 | –
29 | COc1cc2c(ccc(=O)n2C)cc1NS(=O)(=O)c1ccc(C#N)cc1 | 5.6 | IC50 [5]: > 10 µM
